# Target: T1, Axl (Homo sapiens, UniProt P30530)
# T1 construct: Cells: Hela cells; endogenous in cells; host or cells: HeLa cells
# T1 sequence (P30530 26-894): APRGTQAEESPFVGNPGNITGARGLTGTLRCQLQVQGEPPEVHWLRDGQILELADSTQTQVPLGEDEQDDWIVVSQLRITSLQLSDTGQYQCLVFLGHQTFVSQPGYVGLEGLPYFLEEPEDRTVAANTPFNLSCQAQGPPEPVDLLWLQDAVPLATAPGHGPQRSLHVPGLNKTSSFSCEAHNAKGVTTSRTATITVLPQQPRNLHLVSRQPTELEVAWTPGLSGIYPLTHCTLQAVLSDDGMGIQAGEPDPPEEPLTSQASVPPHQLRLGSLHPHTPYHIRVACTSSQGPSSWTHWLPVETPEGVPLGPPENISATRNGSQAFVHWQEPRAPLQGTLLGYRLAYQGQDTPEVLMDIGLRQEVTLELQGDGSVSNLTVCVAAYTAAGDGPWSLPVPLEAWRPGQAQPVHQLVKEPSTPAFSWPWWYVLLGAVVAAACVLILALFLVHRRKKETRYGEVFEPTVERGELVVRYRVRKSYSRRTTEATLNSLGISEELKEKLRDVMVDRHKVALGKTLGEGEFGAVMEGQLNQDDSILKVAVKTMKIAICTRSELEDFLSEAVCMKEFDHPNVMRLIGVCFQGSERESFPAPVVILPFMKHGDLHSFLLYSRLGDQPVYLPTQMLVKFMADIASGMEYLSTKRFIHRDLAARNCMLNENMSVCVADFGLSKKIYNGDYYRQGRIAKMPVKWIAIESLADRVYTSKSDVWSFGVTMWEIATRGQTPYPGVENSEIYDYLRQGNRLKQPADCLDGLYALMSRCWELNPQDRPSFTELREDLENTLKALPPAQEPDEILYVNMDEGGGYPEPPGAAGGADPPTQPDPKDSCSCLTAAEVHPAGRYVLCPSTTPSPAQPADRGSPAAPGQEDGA
# Assay: Phospho-Akt in-cell Western assay (inhibition of Axl activity)
# Format: cell-based
# Settings: Hela cells; 1 hr pre-treatment; stimulation by Axl-antibody cross-linking; phospho-Akt chemiluminescence normalized to relative cell number
# Protocol: The compounds of the invention were tested in the following assay for their ability to inhibit Axl activity.
# Phospho-Akt in-Cell Western Assay
# • Cell culture plate: 96 well assay plate (Corning 3610), white, clear bottom, tissue-culture treated. • Cells: Hela cells. • Starvation medium: For Axl stimulation: 0.5% FCS (fetal calf serum) in DMEM, plus Axl/Fc (extracellular domain of AXL fused to immunoglobulin Fc region) (R&D, 154-AL) 500 ng/mL. • For EGF (epidermal growth factor) stimulation: 0.5% FCS in DMEM (Dulbecco's modified Eagles medium). • Poly-L-Lysine 0.01% solution (the working solution): […], dilute In PBS (phosphate buffered saline). • Axl antibody cross-linking: • 1st: Mouse anti-Axl (R&D, MAB154). • 2nd: Biotin-SP-conjugated AffiniPure goat anti-mouse IgG (H+ L) (Jackson ImmunoResearch #115-065-003). • Fixing buffer: 4% formaldehyde in PBS. • Wash buffer: 0.1% TritonX-100 in PBS. • Quenching buffer: 3% H2O2, 0.1% Azide in wash buffer, Azide and hydrogen peroxide (H2O2) are added fresh. • Blocking buffer: 5% BSA in TBST (tris buffered saline plus 0.1% Tween 20). • Primary antibody: Rabbit anti-human Phospho-Akt antibody (Cell Signaling 9271): 1×250 diluted in blocking buffer. • Secondary antibody: HRP (horse radish peroxidase)-conjugated Goat anti-Rabbit secondary, stock solution: Jackson ImmunoResearch (Goat anti-Rabbit HRP, #111-035-144) 1:1 diluted in glycerol, store at −20° C. The working solution: 1×2000 dilution of stock in blocking buffer. • Chemiluminescent working solution (Pierce, 37030): SuperSignal ELISA (enzyme linked immunosorbant assay) Pico Chemiluminescent substrate. • Crystal Violet solution: Stock: 2.5% Crystal violet in methanol, filtered and kept at ambient temperature. The working solution: dilute the stock 1:20 with PBS immediately before use. • 10% SDS: working solution: 5% SDS (sodium dodecylsulfate), diluted in PBS Methods: Day 1:
# A 96 well TC (tissue culture treated) plate was coated with 10 μg/mL poly-L-Lysine at 37° C. for 30 min, washed twice with PBS, and air-dried for 5 minutes before cells were added. Hela cells were seeded at 10,000 cells/well and the cells were starved in 100 μL starvation medium containing Axl/Fc for 24 hrs.
# The cells were pre-treated with test compounds by adding 100 μL of 2× test compound to the starvation medium on the cells. The cells were incubated at 37° C. for 1 hr before stimulation.
# The cells were stimulated by Axl-antibody cross-linking as follows: A 5× 1st/2nd Axl antibody mixture was made (37.5 μg/mL 1st/100 μg/mL 2nd) in starvation medium and nutated at 4° C. with thorough mixing for 1-2 hours for clustering. The resulting mix was warmed to 37° C. 50 μL of 5× Axl 1st/2nd of antibody cluster was added to the cells and the cells were incubated at 37° C. for 5 min.
# After 5 minutes stimulation, the plate was flicked to remove medium and the plate was tapped onto paper towels. Formaldehyde (4.0% in PBS, 100 μL) was added to fix the cells and the cells were incubated at ambient temperature for 20 min without shaking.
# The cells were washed with a plate washer buffer to remove the formaldehyde solution. The plate was flicked to removed excess wash buffer and tapped onto paper towels. Quenching buffer (100 μL) was added to each well and the cells were incubated at ambient temperature for 20 minutes without shaking.
# The cells were washed with a plate washer buffer to remove the quenching buffer. Blocking buffer (100 μL) was added and the cells were incubated at ambient temperature for at least an hour with gentle shaking.
# The cells were washed with a plate washer buffer and diluted primary antibody (50 μL) was added to each well (blocking buffer was added to the negative control wells instead). The plates were incubated overnight at 4° C. with gentle shaking.
# The wash buffer was removed, diluted secondary antibody (100 μL) was added, and the cells were incubated at ambient temperature for 1 hour with gentle shaking. […]
row,SMILES,IC50
1,"Nc1nc(Nc2ccc(OCCN3CCCC3)cc2)nn1-c1ccc2c(n1)CCCCCC2 [Compound 22, 1-(5,6,7,8,9,10-hexahydrocycloocta[b]pyridin-2-yl)-N^3-(4-(2-(pyrrolidin-1-yl)ethoxy)phenyl)-1H-1,2,4-triazole-3,5-diamine]",< 1000 nM
2,"Nc1nc(Nc2ccc(N3CCC(N4CCCC4)CC3)c(F)c2)nn1-c1ncc2c(n1)CCCCCC2 [Compound 10, N^3-(3-fluoro-4-(4-(pyrrolidin-1-yl)piperidin-1-yl)phenyl)-1-(5,6,7,8,9,10-hexahydrocycloocta[d]pyrimidin-2-yl)-1H-1,2,4-triazole-3,5-diamine]",< 1000 nM
3,"Nc1nc(Nc2ccc3c(c2)CCN(C2CCCC2)CCC3)nn1-c1nc2ccccc2s1 [Compound 33, 1-(benzo[d]thiazol-2-yl)-N^3-(3-cyclopentyl-1,2,3,4,5,6-hexahydrobenzo[d]azocin-9-yl)-1H-1,2,4-triazole-3,5-diamine]",< 1000 nM
4,"CC(C)(COc1ccc(Nc2nc(N)n(-c3ncc4c(n3)CCCCCC4)n2)cc1)N1CCCC1 [Compound 15, 1-(5,6,7,8,9,10-hexahydrocycloocta[d]pyrimidin-2-yl)-N^3-(4-(2-methyl-2-(pyrrolidin-1-yl)propoxy)phenyl)-1H-1,2,4-triazole-3,5-diamine]",< 1000 nM
5,"CS(=O)(=O)N1CCN(c2ccc(Nc3nc(N)n(-c4ncc5c(n4)CCCCCC5)n3)cc2F)CC1 [Compound 19, N^3-(3-fluoro-4-(4-(methylsulfonyl)piperazin-1-yl)phenyl)-1-(5,6,7,8,9,10-hexahydrocycloocta[d]pyrimidin-2-yl)-1H-1,2,4-triazole-3,5-diamine]",1000 to 10000 nM
6,"CN1CCc2ccc(Nc3nc(N)n(-c4ncc5c(n4)CCCCCC5)n3)cc2C1 [Compound 12, 1-(5,6,7,8,9,10-hexahydrocycloocta[d]pyrimidin-2-yl)-N^3-(2-methyl-1,2,3,4-tetrahydroisoquinolin-7-yl)-1H-1,2,4-triazole-3,5-diamine]",> 20000 nM
7,"CN1CCN(c2ccc(Nc3nc(N)n(-c4ncnc5c4CCCCCC5)n3)cc2)CC1 [Compound 21, 1-(5,6,7,8,9,10-hexahydrocycloocta[d]pyrimidin-4-yl)-N^3-(4-(4-methylpiperazin-1-yl)phenyl)-1H-1,2,4-triazole-3,5-diamine]",< 1000 nM
8,"CN(C)[C@H]1CCN(c2ccc(Nc3nc(N)n(-c4ncc5c(n4)CCCCCC5)n3)cc2)C1 [Compound 7, (S)—N^3-(4-(3-(dimethylamino)pyrrolidin-1-yl)phenyl)-1-(5,6,7,8,9,10-hexahydrocycloocta[d]pyrimidin-2-yl)-1H-1,2,4-triazole-3,5-diamine]",1000 to 10000 nM

# Other lines, results leading:
row,IC50,SMILES
1,< 1000 nM,"Cc1csc2c(-n3nc(Nc4cnc5c(c4)CCC(N4CCCC4)CCC5)nc3N)ncnc12 (stereo not drawn) [Compound 40, 1-(7-methylthieno[3,2-d]pyrimidin-4-yl)-N^3-(7-(pyrrolidin-1-yl)-5,6,7,8,9,10-hexahydrocycloocta[b]pyridin-3-yl)-1H-1,2,4-triazole-3,5-diamine]"
2,< 1000 nM,"Cc1csc2c(-n3nc(Nc4cnc5c(c4)CCC(N4CCN(C)CC4)CCC5)nc3N)ncnc12 (stereo not drawn) [Compound 44, N^3-(7-(4-methylpiperazin-1-yl)-5,6,7,8,9,10-hexahydrocycloocta[b]pyridin-3-yl)-1-(7-methylthieno[3,2-d]pyrimidin-4-yl)-1H-1,2,4-triazole-3,5-diamine]"
3,< 1000 nM,"Cc1csc2c(-n3nc(Nc4ccc5c(c4)CCCN(C4CC6CCC4C6)CC5)nc3N)ncnc12 (stereo not drawn) [Compound 42, N^3-(3-(bicyclo[2.2.1]heptan-2-yl)-1,2,3,4,5,6-hexahydrobenzo[d]azocin-8-yl)-1-(7-methylthieno[3,2-d]pyrimidin-4-yl)-1H-1,2,4-triazole-3,5-diamine]"
4,< 1000 nM,"Cc1csc2c(-n3nc(Nc4ccc5c(c4)CCCN(C4CC6CCC4C6)CC5)nc3N)nc(Cl)nc12 (stereo not drawn) [Compound 38, N^3-(3-(bicyclo[2.2.1]heptan-2-yl)-1,2,3,4,5,6-hexahydrobenzo[d]azocin-8-yl)-1-(2-chloro-7-methylthieno[3,2-d]pyrimidin-4-yl)-1H-1,2,4-triazole-3,5-diamine]"
5,< 1000 nM,"Cc1csc2c(-n3nc(Nc4ccc5c(c4)C(=O)NCCCC5)nc3N)nc(Cl)nc12 [Compound 48, N^3-(1-oxo-1,2,3,4,5,6-hexahydrobenzo[c]azocin-9-yl)-1-(2-chloro-7-methylthieno[3,2-d]pyrimidin-4-yl)-1H-1,2,4-triazole-3,5-diamine]"
6,< 1000 nM,"COc1cc2ncnc(-n3nc(Nc4ccc5c(c4)CCCN(C4CC6CCC4C6)CC5)nc3N)c2cc1OC (stereo not drawn) [Compound 39, N^3-(3-(bicyclo[2.2.1]heptan-2-yl)-1,2,3,4,5,6-hexahydrobenzo[d]azocin-8-yl)-1-(6,7-dimethoxyquinazolin-4-yl)-1H-1,2,4-triazole-3,5-diamine]"
7,< 1000 nM,"Nc1nc(Nc2ccc(N3CC(N4CCCC4)C3)c(F)c2)nn1-c1ncnc2c1CCCCCC2 [Compound 36, N^3-(3-fluoro-4-(3-(pyrrolidin-1-yl)azetidin-1-yl)phenyl)-1-(5,6,7,8,9,10-hexahydrocycloocta[d]pyrimidin-4-yl)-1H-1,2,4-triazole-3,5-diamine]"
